# Source: patent US7834164B2 (priority 2006, dated 2010)
# “Also recorded” adds a separate entry of the source. Bridge positions count the residues as written; N and C are the ends. Square brackets hold non-standard residues; d marks the D form. Ends that are not written are not given here. Peptide text beside a SMILES is read from it. mPEG 20 kDa = 20 kDa monomethoxy-PEG attached via aldehyde at the N-terminus; hArg = N=C(N)NCCCC[C@H](N)C(=O)O
# Columns and labels:
# [1] = tested on: IL-2 production in human whole blood; format: cell-based
# [2] = target: T1, human Kv1.3 (Homo sapiens, UniProt P22001); format: cell-based; design: host or cells: HEK293
# T1 sequence (P22001 whole entry): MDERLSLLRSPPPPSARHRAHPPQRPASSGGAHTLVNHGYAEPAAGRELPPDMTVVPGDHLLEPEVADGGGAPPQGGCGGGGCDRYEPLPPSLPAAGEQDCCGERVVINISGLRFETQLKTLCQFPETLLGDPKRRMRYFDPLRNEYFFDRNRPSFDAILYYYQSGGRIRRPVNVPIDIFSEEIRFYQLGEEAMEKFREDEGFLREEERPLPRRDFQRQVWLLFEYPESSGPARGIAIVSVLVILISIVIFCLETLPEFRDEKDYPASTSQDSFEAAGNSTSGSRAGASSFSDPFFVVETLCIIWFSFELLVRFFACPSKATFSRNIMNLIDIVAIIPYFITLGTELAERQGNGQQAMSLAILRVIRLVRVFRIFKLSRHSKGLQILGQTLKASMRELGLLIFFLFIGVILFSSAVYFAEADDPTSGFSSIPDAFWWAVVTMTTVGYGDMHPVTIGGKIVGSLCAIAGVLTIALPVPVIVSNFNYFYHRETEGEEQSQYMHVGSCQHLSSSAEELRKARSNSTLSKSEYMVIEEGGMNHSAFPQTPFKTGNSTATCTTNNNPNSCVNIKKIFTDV
# [3] = target: T1, human Kv1.3; format: binding; design: expressed in transfected cells
# [4] = tested on: IL-2R on T cells in human whole blood; format: cell-based
# [5] = tested on: IFNγ production from human PBMCs; format: cell-based
# [6] = tested on: CD40L on T cells in human whole blood; format: cell-based
# [7] = tested on: T cell proliferation in human PBMCs; assay: T cell proliferation (3H-thymidine incorporation), anti-CD3/anti-CD28 stimulated PBMCs; format: cell-based; settings: aCD3/aCD28 stimulated PBMCs from two normal donors
# Description: Inhibition of T cell proliferation following anti-CD3 and anti-CD28 antibody stimulation of PBMCs. PBMC's were previously isolated from normal human donor Leukophoresis packs, purified by density gradient centrifugation (Ficoll Hypaque), cryopreserved in CPZ Cryopreservation Medium Complete (INCELL, MCPZF-100 plus 10% DMSO final). PBMC's were thawed (95% viability), washed, and seeded at 2×10^5 cells per well in culture medium (RPMI medium 1640; GIBCO) supplemented with 10% fetal calf serum, 100 U/ml penicillin, […] streptomycin, 2 mM L-glutamine, 100 μM non-essential amino acids, and 20 μM 2-ME) in 96-well flat-bottom tissue culture plates. Cells were pre-incubated with either anti-human CD32 (FcyRII) blocking antibody (per manufacturers instructions EASY SEP Human Biotin Selection Kit #18553, StemCell Technologies Vancouver, BC) or Fc-L10-ShK (100 nM-0.001 nM final) for 45 min. Fc-L10-ShK (100 nM-0.001 nM final) was then added to the cells containing anti-human CD32 blocking antibody while medium was added to the cells containing Fc-L10-ShK. Both sets were incubated for an additional 45 min before stimulating for 48 hr with aCD3/aCD28 (0.2 ng/ml and 100 ng/ml, respectively). Final assay volume was 200 ul. […] Cells were then harvested onto glass fiber filters and radioactivity was measured in a B-scintillation counter.
# [8] = target: T1, human Kv1.3; assay: Immunohistochemistry, binding to HEK 293 cells overexpressing human Kv1.3; design: expressed in transfected cells; settings: 5 μg/ml, fixed cells, confocal microscopy
# Experimental: Immunohistochemistry analysis of Fc-L10-ShK[1-35] binding to HEK 293 cells overexpressing human Kv1.3. HEK 293 cells overexpressing human Kv1.3 (HEK Kv1.3) were obtained from BioFocus plc (Cambridge, UK) and maintained per manufacturer's recommendation. The parental HEK 293 cell line was used as a control. Cells were plated on Poly-D-Lysine 24 well plates (#35-4414; Becton-Dickinson, Bedford, Mass.) and allowed to grow to approximately 70% confluence. HEK KV1.3 were plated at 0.5×10e5 cells/well in 1 ml/well of medium. HEK 293 cells were plated at a density of 1.5×10e5 cells/well in 1 ml/well of medium. Before staining, cells were fixed with formalin (Sigma HT50-1-1 Formalin solution, diluted 1:1 with PBS/0.5% BSA before use) by removing cell growth medium, adding 0.2 ml/well formalin solution and incubating at room temperature for ten minutes. Cells were stained by incubating with 0.2 ml/well of 5 μg/ml Fc-L10-ShK[1-35] in PBS/BSA for 30′ at room temperature. Fc-L10-ShK[1-35] was aspirated and then the cells were washed one time with PBS/0.5% BSA. Detection antibody (Goat F(ab)2 anti-human IgG-phycoerythrin; Southern Biotech Associates, Birmingham, Ala.) was added to the wells at 5 μg/ml in PBS/0.5% BSA and incubated for 30′ at room temperature. Wash cells once with PBS/0.5% BSA and examine using confocal microscopy (LSM 510 Meta Confocal Microscope; Carl Zeiss AG, Germany). […]
# [9] = tested on: IFNγ production from human PBMCs; format: cell-based; remark: listed apart in the source
# [10] = tested on: IFN-g production in human whole blood; format: cell-based
molecule,measurement,setting,value
"CC[C@H](C)[C@@H]1NC(=O)[C@H](CCCCN)NC(=O)[C@@H](NC(=O)[C@H](CCCCN)NC(=O)[C@@H](NC(=O)[C@H](CC(N)=O)NC(=O)[C@@H](NC(=O)[C@@H](NC(=O)[C@@H](NC(=O)CN)C(C)C)[C@@H](C)CC)[C@@H](C)CC)C(C)C)CSSC[C@@H]2NC(=O)[C@H](CCCCN)NC(=O)CNC(=O)[C@H](Cc3ccccc3)NC(=O)[C@H](CCCNC(=N)N)NC(=O)[C@H](CCSC)NC(=O)CNC(=O)[C@H](C)NC(=O)[C@H](CCCCN)NC(=O)[C@H](CCCCN)NC(=O)[C@@H]3CSSC[C@@H](C(=O)N[C@H](C(=O)N4CCC[C@H]4C(=O)N[C@@H](CCCCN)C(=O)O)[C@@H](C)O)NC(=O)[C@H](Cc4c[nH]cn4)NC(=O)[C@H](CSSC[C@H](NC(=O)[C@H](CCC(N)=O)NC(=O)[C@H](CCCNC(=N)N)NC(=O)[C@H](CO)NC1=O)C(=O)N[C@@H](CC(C)C)C(=O)N[C@@H](CCC(=O)O)C(=O)N1CCC[C@H]1C(=O)N3)NC(=O)[C@H](CCCCN)NC(=O)CNC(=O)[C@H](CC(N)=O)NC(=O)[C@H](C)NC2=O [OSK1[Ala-29]] (H-GVIINVKCKISRQCLEPCKKAGMRFGKCANGKCHCTPK-OH; disulfide 8-28, 14-33, 18-35)",potency in blocking the cytokine response relative to cyclosporin A,[1],several orders of magnitude more potent
"Fc-L10-OSK1[E16K,K20D]: Fc-L10 fusion of OSK1 with E16K and K20D substitutions (GVIINVKCKISRQCL[hArg]PCKDAGMRFGKCMNGKCACGGG; cysteine pairing not given here; also: Fc-L10 fusion)",fold difference in Kv1.3 potency compared to Fc-L10-OSK1,[2],1.3 fold
same,hKv1.1/hKv1.3,[2],403
"Fc-L10-OSK1[K7S,E16K,K20D]: Fc-L10 fusion of OSK1 with K7S, E16K and K20D substitutions",hKv1.1/hKv1.3,[2],12
Fc-L10-OSK1[K7S]: Fc-L10 fusion of OSK1 with lysine to serine at position 7,hKv1.1/hKv1.3,[2],269
Fc-L10-ShK[1-35]: Fc region of human IgG1 fused via L10 linker to Kv1.3 inhibitor peptide ShK[1-35],response in enzyme-immunoassay on fixed HEK 293 cells stably transfected with human Kv1.3,[3],dose-dependent increase in response
same,thapsigargin-induced upregulation of the IL-2R on T cells in human whole blood (in words),[4],suppressed
same,extent of inhibition of IFNg production,[5],nearly complete inhibition
same,thapsigargin-induced upregulation of CD40L on T cells in human whole blood (in words),[6],suppressed
same,inhibition of T cell proliferation,[7],potently inhibits proliferation of T cells in a dose-dependent manner
same,binding to Kv1.3 overexpressing versus untransfected HEK 293 cells,[8],binds to Kv1.3 overexpressing HEK 293 cells but shows little binding to untransfected cells
same,extent of inhibition of IFNγ production,[9],complete inhibition
Fc-L10-ShK[2-35]: human IgG1 Fc fused via 10 amino acid linker to ShK[2-35],thapsigargin-induced IL-2 production in human whole blood (in words),[1],suppressed
same,thapsigargin-induced IFN-g production in human whole blood (in words),[10],suppressed
"IbTx: BKCa channel inhibitor peptide, purchased from Bachem (QFTDVDCSVSKECWSVCKDLFGVDRGKCMGKKCRCYQ; Definition of Artificial Sequence: Synthetic peptide)",thapsigargin-induced IL-2 production in human whole blood (in words),[1],no significant activity
same,thapsigargin-induced upregulation of the IL-2R on T cells in human whole blood (in words),[4],no significant activity
same,thapsigargin-induced upregulation of CD40L on T cells in human whole blood (in words),[6],no significant activity
same,thapsigargin-induced IFN-g production in human whole blood (in words),[10],no significant activity
"N-Terminally PEGylated-Des-Arg1-ShK: folded ShK[2-35] N-terminally mono-PEGylated with 20 kDa MeO-PEG-aldehyde by reductive amination ({mPEG 20 kDa}-SCIDTIPKSRCTAFQCKHSMKYRLSFCRKTCGTC; also: folded, disulfides present but pairing not given here)",block of human Kv1.3 current (in words),[2],active in blocking human Kv1.3
"SEQ ID No: 4989: OSK1 analog without beta strand 1 (labeled des 1-7), Table 42 (CKISRQCLKPCKDAGMRFGKCMNGKCHC-NH2; ends and bridges not checked)",blockade of the whole blood cytokine response (IL-2 and IFNg; in words),[1],retain activity in blocking inflammation
"FcLoop-L2-OsK1-L2: OsK1 inserted into human IgG1 Fc loop between Leu139 and Thr140 with Gly linkers (protein, Definition of Artificial Sequence: Synthetic protein) MDKTHTCPPCPAPELLGGPSVFLFPPKPKDTLMISRTPEVTCVVVDVSHEDPEVKFNWYVDGVEVHNAKTKPREEQYNSTYRVVSVLTVLHQDWLNGKEYKCKVSNKALPAPIEKTISKAKGQPREPQVYTLPPSRDELGGGVIINVKCKISRQCLEPCKKAGMRFGKCMNGKCHCTPKGGTKNQVSLTCLVKGFYPSDIAVEWESNGQPENNYKTTPPVLDSDGSFFLYSKLTVDKSRWQQGNVFSCSVMHEALHNHYTQKSLSLSPGK",blockade of the whole blood cytokine response (IL-2 and IFNg; in words),[1],potent blockade
"FcLoop-L2-ShK-L2: ShK inserted into human IgG1 Fc loop with Gly linkers (protein, Definition of Artificial Sequence: Synthetic protein) MDKTHTCPPCPAPELLGGPSVFLFPPKPKDTLMISRTPEVTCVVVDVSHEDPEVKFNWYVDGVEVHNAKTKPREEQYNSTYRVVSVLTVLHQDWLNGKEYKCKVSNKALPAPIEKTISKAKGQPREPQVYTLPPSRDELGGRSCIDTIPKSRCTAFQCKHSMKYRLSFCRKTCGTCGGTKNQVSLTCLVKGFYPSDIAVEWESNGQPENNYKTTPPVLDSDGSFFLYSKLTVDKSRWQQGNVFSCSVMHEALHNHYTQKSLSLSPGK",blockade of the whole blood cytokine response (IL-2 and IFNg; in words),[1],potent blockade
PEGylated CH2-OSK1: CH2-OSK1 fusion protein mono-PEGylated with 20 kD methoxy-PEG-aldehyde (conjugate) MGGHHHHHHGGGPSVFLFPPKPKDTLMISRTPEVTCVVVDVSHEDPEVKFNWYVDGVEVHNAKTKPREEQYNSTYRVVSVLTVLHQDWLNGKEYKCKVSNKALPAPIEKTISGGGGSGGGGSGVIINVKCKISRQCLEPCKKAGMRFGKCMNGKCHCTPK,blockade of the whole blood cytokine response (IL-2 and IFNg; in words),[1],active in blocking inflammation; also recorded: modest blockade
